The record followed here is ChEMBL document CHEMBL5696441 (Nat Chem Biol, 2011).

The target in assay [1] is MAP kinase-interacting serine/threonine-protein kinase 2 (Homo sapiens) (UniProt Q9HBH9). The experiment in a line: Inhibition of MKNK2 (unknown origin) assessed as remaining activity at 1 uM by Kinome scan method relative to control.
Assay [2] concerns the target Cyclin-dependent kinase-like 5 (Homo sapiens) (UniProt O76039). Briefly: Inhibition of CDKL5 (unknown origin) assessed as remaining activity at 1 uM by Kinome scan method relative to control.
Assay [3] addresses T1, cGMP-dependent protein kinase 2 (Homo sapiens) (UniProt Q13237).
T1 sequence (whole entry): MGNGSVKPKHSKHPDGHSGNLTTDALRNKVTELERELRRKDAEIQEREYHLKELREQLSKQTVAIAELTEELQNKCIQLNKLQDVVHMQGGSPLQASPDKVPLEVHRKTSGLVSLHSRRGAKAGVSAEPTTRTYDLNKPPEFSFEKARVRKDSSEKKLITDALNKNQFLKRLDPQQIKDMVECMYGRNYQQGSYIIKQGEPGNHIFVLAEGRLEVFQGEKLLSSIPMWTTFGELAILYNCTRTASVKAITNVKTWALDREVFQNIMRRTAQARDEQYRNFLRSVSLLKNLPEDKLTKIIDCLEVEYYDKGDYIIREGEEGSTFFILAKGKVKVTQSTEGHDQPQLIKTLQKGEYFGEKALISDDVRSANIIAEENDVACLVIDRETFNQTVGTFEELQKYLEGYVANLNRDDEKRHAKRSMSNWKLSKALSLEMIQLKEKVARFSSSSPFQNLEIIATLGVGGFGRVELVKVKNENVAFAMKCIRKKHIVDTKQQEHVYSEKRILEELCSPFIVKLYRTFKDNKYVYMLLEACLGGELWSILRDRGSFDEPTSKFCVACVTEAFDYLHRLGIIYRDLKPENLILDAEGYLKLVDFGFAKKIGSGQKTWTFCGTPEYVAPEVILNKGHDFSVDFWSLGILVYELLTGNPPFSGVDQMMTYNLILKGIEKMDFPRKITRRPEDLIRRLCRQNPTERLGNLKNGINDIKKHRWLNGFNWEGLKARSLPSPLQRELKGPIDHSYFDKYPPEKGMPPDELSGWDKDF
The experiment in a line: Inhibition of PRKG2 (unknown origin) assessed as remaining activity at 1 uM by Kinome scan method relative to control.

Assay [4] addresses T2, Inhibitor of nuclear factor kappa-B kinase subunit alpha (Homo sapiens) (UniProt O15111).
T2 sequence (whole entry): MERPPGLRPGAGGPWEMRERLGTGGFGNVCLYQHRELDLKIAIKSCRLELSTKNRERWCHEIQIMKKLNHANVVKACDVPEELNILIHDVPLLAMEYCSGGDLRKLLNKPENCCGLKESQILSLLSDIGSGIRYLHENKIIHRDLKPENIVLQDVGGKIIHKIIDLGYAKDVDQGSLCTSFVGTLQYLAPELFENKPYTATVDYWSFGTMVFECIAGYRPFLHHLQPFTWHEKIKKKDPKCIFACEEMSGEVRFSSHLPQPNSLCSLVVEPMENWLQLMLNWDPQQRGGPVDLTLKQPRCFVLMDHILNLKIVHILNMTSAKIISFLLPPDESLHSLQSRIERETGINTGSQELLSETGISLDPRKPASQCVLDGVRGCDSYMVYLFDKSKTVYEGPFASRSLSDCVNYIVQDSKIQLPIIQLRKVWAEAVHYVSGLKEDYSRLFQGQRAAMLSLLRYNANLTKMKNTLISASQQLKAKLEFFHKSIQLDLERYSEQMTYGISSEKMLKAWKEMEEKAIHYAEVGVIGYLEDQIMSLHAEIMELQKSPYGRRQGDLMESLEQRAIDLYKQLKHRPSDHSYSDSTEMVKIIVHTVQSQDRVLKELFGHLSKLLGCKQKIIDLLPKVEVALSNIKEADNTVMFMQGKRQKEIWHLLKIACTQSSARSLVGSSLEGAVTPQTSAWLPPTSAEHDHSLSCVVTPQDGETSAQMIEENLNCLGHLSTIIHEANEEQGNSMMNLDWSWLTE
Briefly: Inhibition of IKK-alpha (unknown origin) assessed as remaining activity at 1 uM by Kinome scan method relative to control.

The target of assay [5] is T3, Tyrosine-protein kinase Tec (Homo sapiens) (UniProt P42680).
T3 sequence (whole entry): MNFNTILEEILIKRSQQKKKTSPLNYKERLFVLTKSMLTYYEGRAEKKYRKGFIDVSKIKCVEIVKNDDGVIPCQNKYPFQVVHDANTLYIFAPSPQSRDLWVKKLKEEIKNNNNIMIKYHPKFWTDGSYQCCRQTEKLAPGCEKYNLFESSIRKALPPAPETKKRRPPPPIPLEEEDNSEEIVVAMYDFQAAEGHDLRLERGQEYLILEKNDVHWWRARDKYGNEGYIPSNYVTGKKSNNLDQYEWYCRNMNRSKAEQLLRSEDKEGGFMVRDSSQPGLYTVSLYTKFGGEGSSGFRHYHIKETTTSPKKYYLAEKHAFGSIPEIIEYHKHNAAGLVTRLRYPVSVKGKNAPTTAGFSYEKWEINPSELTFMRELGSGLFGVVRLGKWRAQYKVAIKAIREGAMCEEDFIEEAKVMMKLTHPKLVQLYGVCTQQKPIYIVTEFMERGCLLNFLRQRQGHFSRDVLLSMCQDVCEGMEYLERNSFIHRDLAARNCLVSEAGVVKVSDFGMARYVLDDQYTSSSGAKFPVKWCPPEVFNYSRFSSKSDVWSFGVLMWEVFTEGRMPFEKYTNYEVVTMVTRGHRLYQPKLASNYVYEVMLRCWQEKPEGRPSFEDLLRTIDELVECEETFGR
Briefly: Inhibition of TEC (unknown origin) assessed as remaining activity at 1 uM by Kinome scan method relative to control.

In assay [6] the target is Myosin light chain kinase, smooth muscle (Homo sapiens) (UniProt Q15746). Briefly: Inhibition of MYLK (unknown origin) assessed as remaining activity at 1 uM by Kinome scan method relative to control.
In assay [7] the target is Cyclin-dependent kinase 11B (Homo sapiens) (UniProt P21127). The experiment in a line: Inhibition of CDC2L1 (unknown origin) assessed as remaining activity at 1 uM by Kinome scan method relative to control.
Chain of Cyclin-dependent kinase 11B (Homo sapiens) (P21127 whole entry): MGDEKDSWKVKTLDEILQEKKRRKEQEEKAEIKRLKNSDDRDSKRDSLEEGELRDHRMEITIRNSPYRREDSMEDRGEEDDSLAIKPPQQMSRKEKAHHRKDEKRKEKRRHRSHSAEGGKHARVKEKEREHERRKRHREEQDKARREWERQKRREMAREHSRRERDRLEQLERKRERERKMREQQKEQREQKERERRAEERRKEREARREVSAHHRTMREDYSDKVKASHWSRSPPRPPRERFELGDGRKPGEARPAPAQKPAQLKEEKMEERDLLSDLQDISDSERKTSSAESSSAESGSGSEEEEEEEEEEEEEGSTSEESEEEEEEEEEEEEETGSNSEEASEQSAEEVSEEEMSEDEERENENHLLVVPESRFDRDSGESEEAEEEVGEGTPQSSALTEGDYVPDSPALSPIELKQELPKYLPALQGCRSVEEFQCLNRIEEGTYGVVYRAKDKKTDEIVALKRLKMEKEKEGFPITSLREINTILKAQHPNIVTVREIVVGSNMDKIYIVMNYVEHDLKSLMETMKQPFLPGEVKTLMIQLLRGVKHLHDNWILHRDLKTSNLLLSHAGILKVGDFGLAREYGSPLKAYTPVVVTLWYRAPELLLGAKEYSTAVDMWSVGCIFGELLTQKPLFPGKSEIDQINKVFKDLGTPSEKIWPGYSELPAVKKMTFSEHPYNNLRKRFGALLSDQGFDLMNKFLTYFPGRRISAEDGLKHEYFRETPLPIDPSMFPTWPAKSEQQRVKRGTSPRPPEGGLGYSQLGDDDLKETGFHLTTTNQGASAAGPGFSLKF
Assay [8] addresses Dual specificity mitogen-activated protein kinase kinase 3 (Homo sapiens) (UniProt P46734). The experiment in a line: Inhibition of MEK3 (unknown origin) assessed as remaining activity at 1 uM by Kinome scan method relative to control.
In assay [9] the target is Serine/threonine-protein kinase DCLK1 (Homo sapiens) (UniProt O15075). Briefly: Inhibition of DCAMKL1 (unknown origin) assessed as remaining activity at 1 uM by Kinome scan method relative to control.
Chain of Serine/threonine-protein kinase DCLK1 (Homo sapiens) (O15075 whole entry): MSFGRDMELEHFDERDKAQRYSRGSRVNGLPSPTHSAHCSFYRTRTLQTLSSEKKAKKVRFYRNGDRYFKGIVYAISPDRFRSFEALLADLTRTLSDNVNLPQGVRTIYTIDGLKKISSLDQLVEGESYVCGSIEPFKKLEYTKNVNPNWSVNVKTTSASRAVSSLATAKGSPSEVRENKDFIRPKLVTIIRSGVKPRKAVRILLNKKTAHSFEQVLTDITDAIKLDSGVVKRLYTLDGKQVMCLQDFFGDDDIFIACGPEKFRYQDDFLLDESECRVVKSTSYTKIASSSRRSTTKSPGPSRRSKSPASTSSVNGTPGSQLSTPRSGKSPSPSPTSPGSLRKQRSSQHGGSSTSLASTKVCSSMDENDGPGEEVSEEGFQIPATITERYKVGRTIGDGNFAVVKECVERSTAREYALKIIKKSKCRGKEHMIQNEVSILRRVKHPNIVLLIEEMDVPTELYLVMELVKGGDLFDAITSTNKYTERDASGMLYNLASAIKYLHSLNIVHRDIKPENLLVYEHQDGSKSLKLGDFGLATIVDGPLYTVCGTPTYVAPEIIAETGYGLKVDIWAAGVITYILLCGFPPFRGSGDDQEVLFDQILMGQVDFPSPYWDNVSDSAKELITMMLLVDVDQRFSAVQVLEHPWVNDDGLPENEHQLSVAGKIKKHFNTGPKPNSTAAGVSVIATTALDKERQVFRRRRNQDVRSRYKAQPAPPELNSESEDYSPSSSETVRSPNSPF
For assay [10], the target named is Mitogen-activated protein kinase kinase kinase 15 (Homo sapiens) (UniProt Q6ZN16). The experiment in a line: Inhibition of MAP3K15 (unknown origin) assessed as remaining activity at 1 uM by Kinome scan method relative to control.
Chain of Mitogen-activated protein kinase kinase kinase 15 (Homo sapiens) (Q6ZN16 whole entry, canonical isoform): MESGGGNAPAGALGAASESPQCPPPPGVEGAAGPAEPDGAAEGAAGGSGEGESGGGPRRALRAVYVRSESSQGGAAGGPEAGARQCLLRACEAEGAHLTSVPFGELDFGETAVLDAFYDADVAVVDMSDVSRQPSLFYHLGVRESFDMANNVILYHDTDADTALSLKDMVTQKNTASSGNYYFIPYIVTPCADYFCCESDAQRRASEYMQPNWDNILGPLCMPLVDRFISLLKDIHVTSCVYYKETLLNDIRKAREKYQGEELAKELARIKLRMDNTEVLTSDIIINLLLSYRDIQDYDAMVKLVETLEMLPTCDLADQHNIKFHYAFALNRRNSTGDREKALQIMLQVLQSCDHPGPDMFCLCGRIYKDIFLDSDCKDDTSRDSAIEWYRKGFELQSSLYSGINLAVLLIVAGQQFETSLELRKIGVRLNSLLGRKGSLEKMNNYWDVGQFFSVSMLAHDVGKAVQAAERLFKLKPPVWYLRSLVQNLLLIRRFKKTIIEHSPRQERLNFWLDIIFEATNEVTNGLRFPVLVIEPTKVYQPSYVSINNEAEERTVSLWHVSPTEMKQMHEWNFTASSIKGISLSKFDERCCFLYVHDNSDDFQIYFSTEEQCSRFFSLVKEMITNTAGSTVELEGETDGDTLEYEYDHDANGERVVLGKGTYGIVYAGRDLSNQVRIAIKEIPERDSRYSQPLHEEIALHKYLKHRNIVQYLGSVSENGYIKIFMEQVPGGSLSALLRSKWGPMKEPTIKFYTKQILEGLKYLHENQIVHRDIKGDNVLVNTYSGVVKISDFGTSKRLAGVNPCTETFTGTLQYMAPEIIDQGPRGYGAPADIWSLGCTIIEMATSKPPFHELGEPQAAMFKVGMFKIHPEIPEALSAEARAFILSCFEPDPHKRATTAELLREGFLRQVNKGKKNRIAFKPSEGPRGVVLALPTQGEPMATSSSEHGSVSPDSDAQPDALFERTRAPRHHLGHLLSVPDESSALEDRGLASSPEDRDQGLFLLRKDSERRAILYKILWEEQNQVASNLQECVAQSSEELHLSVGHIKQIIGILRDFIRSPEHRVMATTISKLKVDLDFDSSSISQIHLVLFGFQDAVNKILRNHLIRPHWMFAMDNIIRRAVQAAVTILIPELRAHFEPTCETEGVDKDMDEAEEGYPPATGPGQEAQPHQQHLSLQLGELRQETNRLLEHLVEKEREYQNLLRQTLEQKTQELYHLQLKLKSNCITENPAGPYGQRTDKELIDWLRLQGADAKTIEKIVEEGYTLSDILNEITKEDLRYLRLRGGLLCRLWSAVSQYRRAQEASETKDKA
In assay [11] the target is Phosphorylase b kinase gamma catalytic chain, skeletal muscle/heart isoform (Homo sapiens) (UniProt Q16816). The experiment in a line: Inhibition of PHKG1 (unknown origin) assessed as remaining activity at 1 uM by Kinome scan method relative to control.
Chain of Phosphorylase b kinase gamma catalytic chain, skeletal muscle/heart isoform (Homo sapiens) (Q16816 whole entry, looked up, canonical isoform): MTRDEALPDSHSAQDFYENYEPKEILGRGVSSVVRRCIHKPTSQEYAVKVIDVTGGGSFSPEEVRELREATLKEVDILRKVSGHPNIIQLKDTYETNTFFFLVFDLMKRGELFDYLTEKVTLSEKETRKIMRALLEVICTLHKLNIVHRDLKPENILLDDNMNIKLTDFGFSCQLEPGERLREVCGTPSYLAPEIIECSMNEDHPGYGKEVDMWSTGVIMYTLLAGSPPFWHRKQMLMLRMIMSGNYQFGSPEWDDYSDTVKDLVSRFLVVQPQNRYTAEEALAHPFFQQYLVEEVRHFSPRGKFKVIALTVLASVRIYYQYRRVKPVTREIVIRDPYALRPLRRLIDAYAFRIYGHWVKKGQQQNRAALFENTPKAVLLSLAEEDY

Chain of MAP kinase-interacting serine/threonine-protein kinase 2 (Homo sapiens) (Q9HBH9 whole entry, looked up): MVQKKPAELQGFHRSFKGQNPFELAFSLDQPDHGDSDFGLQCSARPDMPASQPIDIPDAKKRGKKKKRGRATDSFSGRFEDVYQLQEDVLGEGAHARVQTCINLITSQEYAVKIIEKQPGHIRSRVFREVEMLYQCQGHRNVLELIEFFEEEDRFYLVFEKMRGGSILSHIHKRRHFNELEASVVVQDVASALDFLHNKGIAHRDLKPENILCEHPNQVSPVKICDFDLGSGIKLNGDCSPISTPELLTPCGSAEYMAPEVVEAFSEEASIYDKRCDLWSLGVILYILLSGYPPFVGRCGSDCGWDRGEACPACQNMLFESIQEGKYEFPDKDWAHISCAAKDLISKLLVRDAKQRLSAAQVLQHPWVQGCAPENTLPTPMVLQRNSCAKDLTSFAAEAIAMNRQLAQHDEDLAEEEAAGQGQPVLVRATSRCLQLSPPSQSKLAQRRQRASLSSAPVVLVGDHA
Chain of Cyclin-dependent kinase-like 5 (Homo sapiens) (O76039 whole entry): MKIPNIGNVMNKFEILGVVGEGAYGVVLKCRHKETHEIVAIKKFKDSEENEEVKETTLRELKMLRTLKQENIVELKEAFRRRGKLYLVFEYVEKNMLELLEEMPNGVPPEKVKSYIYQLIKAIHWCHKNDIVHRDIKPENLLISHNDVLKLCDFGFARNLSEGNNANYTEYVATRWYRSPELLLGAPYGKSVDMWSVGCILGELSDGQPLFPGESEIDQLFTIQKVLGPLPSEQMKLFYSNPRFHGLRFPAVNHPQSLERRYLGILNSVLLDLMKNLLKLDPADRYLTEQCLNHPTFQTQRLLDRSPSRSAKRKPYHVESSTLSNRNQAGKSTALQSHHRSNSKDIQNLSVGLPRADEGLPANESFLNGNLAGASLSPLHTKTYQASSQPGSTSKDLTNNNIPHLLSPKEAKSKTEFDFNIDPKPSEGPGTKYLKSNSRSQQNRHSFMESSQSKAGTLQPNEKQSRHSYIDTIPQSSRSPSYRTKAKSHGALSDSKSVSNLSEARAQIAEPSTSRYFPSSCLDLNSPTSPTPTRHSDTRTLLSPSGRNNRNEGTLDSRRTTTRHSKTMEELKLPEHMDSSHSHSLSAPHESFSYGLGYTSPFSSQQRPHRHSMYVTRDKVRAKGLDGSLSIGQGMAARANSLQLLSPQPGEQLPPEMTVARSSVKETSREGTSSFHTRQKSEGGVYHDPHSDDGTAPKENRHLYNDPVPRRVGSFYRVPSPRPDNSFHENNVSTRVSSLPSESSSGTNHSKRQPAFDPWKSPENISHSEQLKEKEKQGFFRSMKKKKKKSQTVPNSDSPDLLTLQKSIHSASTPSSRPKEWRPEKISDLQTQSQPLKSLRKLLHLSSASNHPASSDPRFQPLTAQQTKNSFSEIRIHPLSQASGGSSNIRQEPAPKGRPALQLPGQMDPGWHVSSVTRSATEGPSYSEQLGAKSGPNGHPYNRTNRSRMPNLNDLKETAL
Chain of Dual specificity mitogen-activated protein kinase kinase 3 (Homo sapiens) (P46734 whole entry): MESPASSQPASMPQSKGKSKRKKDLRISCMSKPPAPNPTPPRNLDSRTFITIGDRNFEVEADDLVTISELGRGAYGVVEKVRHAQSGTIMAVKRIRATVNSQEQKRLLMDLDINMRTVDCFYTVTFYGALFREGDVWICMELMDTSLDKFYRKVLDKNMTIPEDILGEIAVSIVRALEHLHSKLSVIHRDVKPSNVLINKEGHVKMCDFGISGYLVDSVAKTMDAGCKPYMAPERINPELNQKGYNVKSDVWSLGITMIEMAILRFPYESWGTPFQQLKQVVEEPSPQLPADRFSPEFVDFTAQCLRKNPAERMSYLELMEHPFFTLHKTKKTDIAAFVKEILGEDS

On to `Nc1ccccc1Nc1ccc2c(c1)CCc1ccccc1C2=O`, for which the Activity stood at 88% in [1]; 96% in assay [2]; 91% in [3]; 98% in assay [4]; 98% in [5]; 72% in [6]. For the same molecule, the Activity is 94% in assay [7]; 97% in assay [8]; 92% in assay [9]; 94% in assay [10]; 92% in assay [11].

For `O=C1c2ccc(Nc3ccc(F)cc3F)cc2CCc2ccc(OC[C@H](O)CO)cc21` [Skepinone-L], the Activity in assay [1] was found to be 72%; in assay [2] it was 100%; in assay [3], 100%; in assay [4], 100%; in [5], 99%; in [6], 97%. Besides, the Activity worked out at 99% in [7]; 95% in assay [8]; 97% in assay [9]; 80% in [10]; 97% in assay [11].
